Source: patent US20240158446A1, “CYCLIC COMPOUND HAVING SELECTIVE INHIBITORY ACTION ON KRAS OVER HRAS AND NRAS” (CHUGAI SEIYAKU KABUSHIKI KAISHA, priority 2021, published 2024)

Key:
[1] = molecular target: GDP-bound NRAS wild-type protein (Homo sapiens, UniProt P01111); assay: Binding to NRAS by surface plasmon resonance (SPR), Single Cycle Kinetics; settings: SPR; GDP-bound NRAS wild-type protein vs GDP-bound KRAS wild-type protein; KD ratio class
[2] = molecular target: GDP-bound HRAS wild-type protein (Homo sapiens, UniProt P01112); assay: Binding to HRAS by surface plasmon resonance (SPR), Single Cycle Kinetics; settings: SPR; GDP-bound HRAS wild-type protein vs GDP-bound KRAS wild-type protein; KD ratio class
[3] = molecular target: GDP-bound KRAS wild-type protein (Homo sapiens, UniProt P01116); assay: Binding to KRAS by surface plasmon resonance (SPR), Single Cycle Kinetics; settings: SPR, Single Cycle Kinetics, 1:1 binding model; GDP-bound KRAS wild-type protein; read-out: KRAS KD
Sequence of GDP-bound KRAS wild-type protein (P01116 whole entry): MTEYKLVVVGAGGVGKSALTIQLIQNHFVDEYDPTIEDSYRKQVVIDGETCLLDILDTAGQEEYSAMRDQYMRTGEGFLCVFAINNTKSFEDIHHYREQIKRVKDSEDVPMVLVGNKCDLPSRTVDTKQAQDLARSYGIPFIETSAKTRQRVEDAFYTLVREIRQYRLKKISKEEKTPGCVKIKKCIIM

Sequence of GDP-bound HRAS wild-type protein (P01112 whole entry): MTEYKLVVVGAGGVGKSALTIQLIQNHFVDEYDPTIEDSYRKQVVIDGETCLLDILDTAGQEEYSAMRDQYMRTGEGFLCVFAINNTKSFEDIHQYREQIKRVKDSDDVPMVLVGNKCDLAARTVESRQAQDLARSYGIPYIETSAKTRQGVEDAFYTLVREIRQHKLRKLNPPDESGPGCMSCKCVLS
Sequence of GDP-bound NRAS wild-type protein (P01111 whole entry): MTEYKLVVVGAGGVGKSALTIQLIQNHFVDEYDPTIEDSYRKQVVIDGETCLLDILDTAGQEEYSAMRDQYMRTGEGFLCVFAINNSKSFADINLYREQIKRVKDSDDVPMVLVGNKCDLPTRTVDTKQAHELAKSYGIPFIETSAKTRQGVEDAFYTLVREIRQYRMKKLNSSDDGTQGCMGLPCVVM

SMILES | NRAS/KRAS (ratio of KD value for NRAS to KD value for KRAS) [1] | HRAS/KRAS (ratio of KD value for HRAS to KD value for KRAS) [2] | Kd [3] [nM]
CCO[C@@H]1C[C@H]2C(=O)NC3(CCC3)C(=O)N(C)[C@@H](C(CC)CC)C(=O)N(C)[C@H](C(=O)N(C)CCOC)CC(=O)N(C)[C@@H](CC)C(=O)N[C@@H]([C@@H](C)CC)C(=O)N(C)CC(=O)N(C)[C@H]3C/C=C\CCN(C3=O)[C@@H](Cc3ccc(C(F)(F)F)cc3)C(=O)N(C)CC(=O)N[C@@H](CCc3cc(F)c(C(F)(F)F)c(F)c3)C(=O)N2C1 [PP1330] | AA (a compound having 20 or more is denoted as AA) | A (a compound having 10 or more and less than 20 is denoted as A) | 0.42
CCC[C@H]1C(=O)N[C@@H]([C@@H](C)CC)C(=O)N(C)CC(=O)N(C)[C@H]2C/C=C\CCN(C2=O)[C@@H](Cc2ccc(C(F)(F)F)cc2)C(=O)N(C)CC(=O)N[C@@H](CCc2cc(F)c(C(F)(F)F)c(F)c2)C(=O)N2C[C@H](OCC)C[C@H]2C(=O)NC2(CCC2)C(=O)N(C)[C@@H](C2CCCC2)C(=O)N(C)[C@H](C(=O)N(C)CCOC)CC(=O)N1C [PP1331, (2S,8S,12R,14S,20S,23S,27S,30S,36S,38Z)-20-cyclopentyl-8-[2-[3,5-difluoro-4-(trifluoromethyl)phenyl]ethyl]-12-ethoxy-N-(2-methoxyethyl)-N,4,19,22,26,32,35-heptamethyl-30-[(1S)-1-methylpropyl]-3,6,9,15,18,21,25,28,31,34,42-undecaoxo-27-propyl-2-[[4-(trifluoromethyl)phenyl]methyl]spiro[1,4,7,10,16,19,22,26,29,32,35-undecazatricyclo[34.5.1.0^10,14]dotetracont-38-ene-17,1′-cyclobutane]-23-carboxamide] | A (a compound having 10 or more and less than 20 is denoted as A) | A (a compound having 10 or more and less than 20 is denoted as A) | 0.08
CCO[C@@H]1C[C@H]2C(=O)NC3(CCC3)C(=O)N(C)[C@@H](C3CCCC3)C(=O)N(C)[C@H](C(=O)N3CCOCC3)CC(=O)N(C)[C@@H](CC(C)C)C(=O)N[C@@H]([C@@H](C)CC)C(=O)N(C)CC(=O)N(C)[C@H]3CC/C=C(/C)CN(C3=O)[C@@H](Cc3ccc(C(F)(F)F)cc3)C(=O)N(C)CC(=O)N[C@@H](CCc3cc(F)c(C(F)(F)F)c(F)c3)C(=O)N2C1 [PP1333] | C (A compound having a KD ratio of 0.1 or more and less than 3 is denoted as C) | B (a compound having 3 or more and less than 10 is denoted as B) | 58
CCO[C@@H]1C[C@H]2C(=O)NC3(CCC3)C(=O)N(C)[C@@H](C3CCCC3)C(=O)N(C)[C@H](C(=O)N(C)C)CC(=O)N(C)[C@@H](CC)C(=O)N[C@@H]([C@@H](C)CC)C(=O)N(C)CC(=O)N(C)[C@H]3CC/C=C(/C)CN(C3=O)[C@@H](Cc3ccc(C(F)(F)F)cc3)C(=O)N(C)CC(=O)N[C@@H](CCc3cc(F)c(C(F)(F)F)c(F)c3)C(=O)N2C1 [PP1334] | B (a compound having 3 or more and less than 10 is denoted as B) | B (a compound having 3 or more and less than 10 is denoted as B) | 11
CCO[C@@H]1C[C@H]2C(=O)NC3(CCC3)C(=O)N(C)[C@@H](C3CCCC3)C(=O)N(C)[C@H](C(=O)N3CCOCC3)CC(=O)N(C)[C@@H](CC)C(=O)N[C@@H]([C@@H](C)CC)C(=O)N(C)CC(=O)N(C)[C@H]3CC/C=C(/C)CN(C3=O)[C@@H](Cc3ccc(C(F)(F)F)cc3)C(=O)N(C)CC(=O)N[C@@H](CCc3cc(F)c(C(F)(F)F)c(F)c3)C(=O)N2C1 [PP1335] | B (a compound having 3 or more and less than 10 is denoted as B) | B (a compound having 3 or more and less than 10 is denoted as B) | 18
CCO[C@@H]1C[C@H]2C(=O)NC3(CCCC3)C(=O)N(C)[C@@H](C3CCCC3)C(=O)N(C)[C@H](C(=O)N(C)C)CC(=O)N(C)[C@@H](CC)C(=O)N[C@@H]([C@@H](C)CC)C(=O)N(C)CC(=O)N(C)[C@H]3C[C@H](C)C(C)CN(C3=O)[C@@H](Cc3ccc(C(F)(F)F)cc3)C(=O)N(C)CC(=O)N[C@@H](CCc3cc(F)c(C(F)(F)F)c(F)c3)C(=O)N2C1 (stereo partly drawn) [PP1347] | B (a compound having 3 or more and less than 10 is denoted as B) | B (a compound having 3 or more and less than 10 is denoted as B) | 0.017
CCO[C@@H]1C[C@H]2C(=O)NC3(CCCC3)C(=O)N(C)[C@@H](C3CCCC3)C(=O)N(C)[C@H](C(=O)N3CCOCC3)CC(=O)N(C)[C@@H](CC)C(=O)N[C@@H]([C@@H](C)CC)C(=O)N(C)CC(=O)N(C)[C@H]3C[C@H](C)C(C)CN(C3=O)[C@@H](Cc3ccc(C(F)(F)F)cc3)C(=O)N(C)CC(=O)N[C@@H](CCc3cc(F)c(C(F)(F)F)c(F)c3)C(=O)N2C1 (stereo partly drawn) [PP1348] | B (a compound having 3 or more and less than 10 is denoted as B) | B (a compound having 3 or more and less than 10 is denoted as B) | 0.076
CC[C@H](C)[C@@H]1NC(=O)[C@H](CC)N(C)C(=O)C[C@@H](C(=O)N(C)C)N(C)C(=O)[C@H](C2CCCC2)N(C)C(=O)C2(CCCC2)NC(=O)[C@@H]2CCCN2C(=O)[C@H](CCc2cc(F)c(C(F)(F)F)c(F)c2)NC(=O)CN(C)C(=O)[C@H](Cc2ccc(C(F)(F)F)cc2)N2CC(C)[C@@H](C)C[C@@H](C2=O)N(C)C(=O)CN(C)C1=O (stereo partly drawn) [PP1349] | C (A compound having a KD ratio of 0.1 or more and less than 3 is denoted as C) | B (a compound having 3 or more and less than 10 is denoted as B) | 0.09
CCCN(C)C(=O)[C@@H]1CC(=O)N(C)[C@@H](CC(C)C)C(=O)N[C@@H]([C@@H](C)CC)C(=O)N(C)CC(=O)N(C)[C@H]2C/C=C\CCN(C2=O)[C@@H](Cc2ccc(C(F)(F)F)cc2)C(=O)N(C)CC(=O)N[C@@H](CCc2cc(F)c(C(F)(F)F)c(F)c2)C(=O)N2C[C@H](OCC)C[C@H]2C(=O)NC2(CCC2)C(=O)N(C)[C@@H](C2CCCC2)C(=O)N1C [PP1387, (2S,8S,12R,14S,20S,23S,27S,30S,36S,38Z)-20-cyclopentyl-8-[2-[3,5-difluoro-4-(trifluoromethyl)phenyl]ethyl]-12-ethoxy-27-isobutyl-N,4,19,22,26,32,35-heptamethyl-30-[(1S)-1-methylpropyl]-3,6,9,15,18,21,25,28,31,34,42-undecaoxo-N-propyl-2-[[4-(trifluoromethyl)phenyl]methyl]spiro[1,4,7,10,16,19,22,26,29,32,35-undecazatricyclo[34.5.1.0^10,14]dotetracont-38-ene-17,1′-cyclobutane]-23-carboxamide] | A (a compound having 10 or more and less than 20 is denoted as A) | B (a compound having 3 or more and less than 10 is denoted as B) | 0.098
CCCN(C)C(=O)[C@@H]1CC(=O)N(C)[C@@H](CC2CC2)C(=O)N[C@@H]([C@@H](C)CC)C(=O)N(C)CC(=O)N(C)[C@H]2C/C=C\CCN(C2=O)[C@@H](Cc2ccc(C(F)(F)F)cc2)C(=O)N(C)CC(=O)N[C@@H](CCc2cc(F)c(C(F)(F)F)c(F)c2)C(=O)N2C[C@H](OCC)C[C@H]2C(=O)NC2(CCC2)C(=O)N(C)[C@@H](C2CCCC2)C(=O)N1C [PP1388] | A (a compound having 10 or more and less than 20 is denoted as A) | B (a compound having 3 or more and less than 10 is denoted as B) | 0.076
CCC[C@H]1C(=O)N[C@@H]([C@@H](C)CC)C(=O)N(C)CC(=O)N(C)[C@H]2C/C=C\CCN(C2=O)[C@@H](Cc2ccc(C(F)(F)F)cc2)C(=O)N(C)CC(=O)N[C@@H](CCc2cc(F)c(C(F)(F)F)c(F)c2)C(=O)N2C[C@H](OCC)C[C@H]2C(=O)NC2(CCC2)C(=O)N(C)[C@@H](C2CCCC2)C(=O)N(C)[C@H](C(=O)N(C)CCC)CC(=O)N1C [PP1389, (2S,8S,12R,14S,20S,23S,27S,30S,36S,38Z)-20-cyclopentyl-8-[2-[3,5-difluoro-4-(trifluoromethyl)phenyl]ethyl]-12-ethoxy-N,4,19,22,26,32,35-heptamethyl-30-[(1S)-1-methylpropyl]-3,6,9,15,18,21,25,28,31,34,42-undecaoxo-N,27-dipropyl-2-[[4-(trifluoromethyl)phenyl]methyl]spiro[1,4,7,10,16,19,22,26,29,32,35-undecazatricyclo[34.5.1.0^10,14]dotetracont-38-ene-17,1′-cyclobutane]-23-carboxamide] | AA (a compound having 20 or more is denoted as AA) | A (a compound having 10 or more and less than 20 is denoted as A) | 0.066
CCCOC[C@H]1C(=O)N[C@@H]([C@@H](C)CC)C(=O)N(C)CC(=O)N(C)[C@H]2C/C=C\CCN(C2=O)[C@@H](Cc2ccc(C)cc2)C(=O)N(C)CC(=O)N[C@@H](CCc2cc(F)c(C(F)(F)F)c(F)c2)C(=O)N2C[C@H](OCC)C[C@H]2C(=O)NC2(CCCC2)C(=O)N(C)[C@@H](C2CCCC2)C(=O)N(C)[C@H](C(=O)N2CCCC2)CC(=O)N1C [PP1401] | A (a compound having 10 or more and less than 20 is denoted as A) | A (a compound having 10 or more and less than 20 is denoted as A) | 0.26
CCO[C@@H]1C[C@H]2C(=O)NC3(CCC3)C(=O)N(C)[C@@H](C3CCCC3)C(=O)N(C)[C@H](C)CC(=O)N(C)[C@@H](CC(C)C)C(=O)N[C@@H]([C@@H](C)CC)C(=O)N(C)CC(=O)N(C)[C@H]3C/C=C\CCN(C3=O)[C@@H](Cc3ccc(C)cc3)C(=O)N(C)CC(=O)N[C@@H](CCc3cc(F)c(C(F)(F)F)c(F)c3)C(=O)N2C1 [PP1417] | B (a compound having 3 or more and less than 10 is denoted as B) | B (a compound having 3 or more and less than 10 is denoted as B) | 0.26
